Test results as given in article PMC5362750, “Discovery of Potent, Selective, and Orally Bioavailable Small-Molecule Modulators of the Mediator Complex-Associated Kinases CDK8 and CDK19” (Journal of Medicinal Chemistry, 2016).

How the values were obtained:
[1] = molecular target: T1, MCH1 (h) (Homo sapiens, UniProt Q99705); test: CEREP binding assay; conditions: agonist radioligand, read-out: % Inhibition of Control Specific Binding
T1 construct: purchased Millipore (KinaseProfiler) kinase panel

[2] = molecular target: motilin (h) (Homo sapiens, UniProt O43193); test: CEREP binding assay; conditions: agonist radioligand, read-out: % Inhibition of Control Specific Binding
[3] = molecular target: sst1 (h) (Homo sapiens, UniProt P30872); test: CEREP binding assay; conditions: agonist radioligand, read-out: % Inhibition of Control Specific Binding
[4] = human
[5] = molecular target: T2, KDR (Homo sapiens, UniProt P35968); test: Kinase panel (Millipore); type: biochemical; conditions: 1 µM, ATP at Km
T2 construct: purchased Millipore (KinaseProfiler) kinase panel

[6] = molecular target: T3, AXL (Homo sapiens, UniProt P30530); test: Kinase panel (Millipore); type: biochemical; conditions: 1 µM, ATP at Km
T3 construct: purchased Millipore (KinaseProfiler) kinase panel

[7] = molecular target: T4, EPHB2 (Homo sapiens, UniProt P29323); test: Kinase panel (Millipore); type: biochemical; conditions: 1 µM, ATP at Km
T4 construct: purchased Millipore (KinaseProfiler) kinase panel

[8] = molecular target: T5, EPHB3 (Homo sapiens, UniProt P54753); test: Kinase panel (Millipore); type: biochemical; conditions: 1 µM, ATP at Km
T5 construct: purchased Millipore (KinaseProfiler) kinase panel

[9] = molecular target: MAPK2 (Homo sapiens, UniProt P28482); test: Kinase panel (Millipore); type: biochemical; conditions: 1 µM, ATP at Km
[10] = molecular target: T6, BRK (Homo sapiens, UniProt Q13882); test: Kinase panel (Millipore); type: biochemical; conditions: 1 µM, ATP at Km
T6 construct: purchased Millipore (KinaseProfiler) kinase panel

[11] = molecular target: MARK1 (Homo sapiens, UniProt Q9P0L2); test: Kinase panel (Millipore); type: biochemical; conditions: 1 µM, ATP at Km
[12] = molecular target: MEK1 (Homo sapiens, UniProt Q02750); test: Kinase panel (Millipore); type: biochemical; conditions: 1 µM, ATP at Km
[13] = molecular target: T7, MKK7BETA (Homo sapiens, UniProt O14733); test: Kinase panel (Millipore); type: biochemical; conditions: 1 µM, ATP at Km
T7 construct: purchased Millipore (KinaseProfiler) kinase panel

[14] = molecular target: T8, MLK1 (Homo sapiens, UniProt P80192); test: Kinase panel (Millipore); type: biochemical; conditions: 1 µM, ATP at Km
T8 construct: purchased Millipore (KinaseProfiler) kinase panel

[15] = molecular target: T9, MNK2 (Homo sapiens, UniProt Q9HBH9); test: Kinase panel (Millipore); type: biochemical; conditions: 1 µM, ATP at Km
T9 construct: purchased Millipore (KinaseProfiler) kinase panel

[16] = molecular target: GSK3BETA (Homo sapiens, UniProt P49841); test: Kinase panel (Millipore); type: biochemical; conditions: 1 µM, ATP at Km
[17] = molecular target: CK1DELTA (Homo sapiens, UniProt P48730); test: Kinase panel (Millipore); type: biochemical; conditions: 1 µM, ATP at Km
[18] = molecular target: T10, MUSK (Homo sapiens, UniProt O15146); test: Kinase panel (Millipore); type: biochemical; conditions: 1 µM, ATP at Km
T10 construct: purchased Millipore (KinaseProfiler) kinase panel

[19] = molecular target: CSK (Homo sapiens, UniProt P41240); test: Kinase panel (Millipore); type: biochemical; conditions: 1 µM, ATP at Km
[20] = molecular target: T11, IKKALPHA (Homo sapiens, UniProt O15111); test: Kinase panel (Millipore); type: biochemical; conditions: 1 µM, ATP at Km
T11 construct: purchased Millipore (KinaseProfiler) kinase panel

[21] = molecular target: T12, DAPK1 (Homo sapiens, UniProt P53355); test: Kinase panel (Millipore); type: biochemical; conditions: 1 µM, ATP at Km
T12 construct: purchased Millipore (KinaseProfiler) kinase panel

[22] = molecular target: T13, PAK2 (Homo sapiens, UniProt Q13177); test: Kinase panel (Millipore); type: biochemical; conditions: 1 µM, ATP at Km
T13 construct: purchased Millipore (KinaseProfiler) kinase panel

[23] = molecular target: SAPK3 (Homo sapiens, UniProt P53778); test: Kinase panel (Millipore); type: biochemical; conditions: 1 µM, ATP at Km
[24] = molecular target: PI3K DELTA (Homo sapiens, UniProt O00329); test: Kinase panel (Millipore); type: biochemical; conditions: 1 µM, ATP at Km
[25] = molecular target: PKBGAMMA (Homo sapiens, UniProt Q9Y243); test: Kinase panel (Millipore); type: biochemical; conditions: 1 µM, ATP at Km
[26] = molecular target: T14, TAO3 (Homo sapiens, UniProt Q9H2K8); test: Kinase panel (Millipore); type: biochemical; conditions: 1 µM, ATP at Km
T14 construct: purchased Millipore (KinaseProfiler) kinase panel

[27] = molecular target: T15, WNK2 (Homo sapiens, UniProt Q9Y3S1); test: Kinase panel (Millipore); type: biochemical; conditions: 1 µM, ATP at Km
T15 construct: purchased Millipore (KinaseProfiler) kinase panel

[28] = molecular target: GRK7 (Homo sapiens, UniProt Q8WTQ7); test: Kinase panel (Millipore); type: biochemical; conditions: 1 µM, ATP at Km
[29] = molecular target: PHKGAMMA2 (Homo sapiens, UniProt P15735); test: Kinase panel (Millipore); type: biochemical; conditions: 1 µM, ATP at Km
[30] = molecular target: CDK3/CYCLINE (Homo sapiens, UniProt Q00526); conditions: 1 µM, ATP at Km
[31] = molecular target: CDK6/CYCLIND3 (Homo sapiens, UniProt Q00534); conditions: 1 µM, ATP at Km
[32] = molecular target: EGFR(L858R) (Homo sapiens, UniProt P00533, L858R); conditions: 1 µM, ATP at Km
[33] = molecular target: CKIT(V654A) (Homo sapiens, UniProt P10721, V654A); conditions: 1 µM, ATP at Km
[34] = molecular target: CHK2(R145W) (Homo sapiens, UniProt O96017, R145W); conditions: 1 µM, ATP at Km
[35] = molecular target: RET(V804M) (Homo sapiens, UniProt P07949, V804M); conditions: 1 µM, ATP at Km
[36] = molecular target: CKIT(V560G) (Homo sapiens, UniProt P10721, V560G); conditions: 1 µM, ATP at Km
[37] = molecular target: cMET (D1246N) (Homo sapiens, UniProt P08581, D1228N); conditions: 1 µM, ATP at Km
[38] = molecular target: cMET (M1268T) (Homo sapiens, UniProt P08581, M1250T); conditions: 1 µM, ATP at Km
[39] = molecular target: cMET (Y1248C) (Homo sapiens, UniProt P08581, Y1230C); conditions: 1 µM, ATP at Km
[40] = in vitro; conditions: human, Caco-2, pH 7.4
[41] = molecular target: alpha 1B (h) (Homo sapiens, UniProt P35368); test: biochemical; conditions: read-out: % Inhibition of Control Specific Binding
[42] = molecular target: 5-HT2C (h) (Homo sapiens, UniProt P28335); test: biochemical; conditions: read-out: % Inhibition of Control Specific Binding

T15 sequence (Q9Y3S1 whole entry): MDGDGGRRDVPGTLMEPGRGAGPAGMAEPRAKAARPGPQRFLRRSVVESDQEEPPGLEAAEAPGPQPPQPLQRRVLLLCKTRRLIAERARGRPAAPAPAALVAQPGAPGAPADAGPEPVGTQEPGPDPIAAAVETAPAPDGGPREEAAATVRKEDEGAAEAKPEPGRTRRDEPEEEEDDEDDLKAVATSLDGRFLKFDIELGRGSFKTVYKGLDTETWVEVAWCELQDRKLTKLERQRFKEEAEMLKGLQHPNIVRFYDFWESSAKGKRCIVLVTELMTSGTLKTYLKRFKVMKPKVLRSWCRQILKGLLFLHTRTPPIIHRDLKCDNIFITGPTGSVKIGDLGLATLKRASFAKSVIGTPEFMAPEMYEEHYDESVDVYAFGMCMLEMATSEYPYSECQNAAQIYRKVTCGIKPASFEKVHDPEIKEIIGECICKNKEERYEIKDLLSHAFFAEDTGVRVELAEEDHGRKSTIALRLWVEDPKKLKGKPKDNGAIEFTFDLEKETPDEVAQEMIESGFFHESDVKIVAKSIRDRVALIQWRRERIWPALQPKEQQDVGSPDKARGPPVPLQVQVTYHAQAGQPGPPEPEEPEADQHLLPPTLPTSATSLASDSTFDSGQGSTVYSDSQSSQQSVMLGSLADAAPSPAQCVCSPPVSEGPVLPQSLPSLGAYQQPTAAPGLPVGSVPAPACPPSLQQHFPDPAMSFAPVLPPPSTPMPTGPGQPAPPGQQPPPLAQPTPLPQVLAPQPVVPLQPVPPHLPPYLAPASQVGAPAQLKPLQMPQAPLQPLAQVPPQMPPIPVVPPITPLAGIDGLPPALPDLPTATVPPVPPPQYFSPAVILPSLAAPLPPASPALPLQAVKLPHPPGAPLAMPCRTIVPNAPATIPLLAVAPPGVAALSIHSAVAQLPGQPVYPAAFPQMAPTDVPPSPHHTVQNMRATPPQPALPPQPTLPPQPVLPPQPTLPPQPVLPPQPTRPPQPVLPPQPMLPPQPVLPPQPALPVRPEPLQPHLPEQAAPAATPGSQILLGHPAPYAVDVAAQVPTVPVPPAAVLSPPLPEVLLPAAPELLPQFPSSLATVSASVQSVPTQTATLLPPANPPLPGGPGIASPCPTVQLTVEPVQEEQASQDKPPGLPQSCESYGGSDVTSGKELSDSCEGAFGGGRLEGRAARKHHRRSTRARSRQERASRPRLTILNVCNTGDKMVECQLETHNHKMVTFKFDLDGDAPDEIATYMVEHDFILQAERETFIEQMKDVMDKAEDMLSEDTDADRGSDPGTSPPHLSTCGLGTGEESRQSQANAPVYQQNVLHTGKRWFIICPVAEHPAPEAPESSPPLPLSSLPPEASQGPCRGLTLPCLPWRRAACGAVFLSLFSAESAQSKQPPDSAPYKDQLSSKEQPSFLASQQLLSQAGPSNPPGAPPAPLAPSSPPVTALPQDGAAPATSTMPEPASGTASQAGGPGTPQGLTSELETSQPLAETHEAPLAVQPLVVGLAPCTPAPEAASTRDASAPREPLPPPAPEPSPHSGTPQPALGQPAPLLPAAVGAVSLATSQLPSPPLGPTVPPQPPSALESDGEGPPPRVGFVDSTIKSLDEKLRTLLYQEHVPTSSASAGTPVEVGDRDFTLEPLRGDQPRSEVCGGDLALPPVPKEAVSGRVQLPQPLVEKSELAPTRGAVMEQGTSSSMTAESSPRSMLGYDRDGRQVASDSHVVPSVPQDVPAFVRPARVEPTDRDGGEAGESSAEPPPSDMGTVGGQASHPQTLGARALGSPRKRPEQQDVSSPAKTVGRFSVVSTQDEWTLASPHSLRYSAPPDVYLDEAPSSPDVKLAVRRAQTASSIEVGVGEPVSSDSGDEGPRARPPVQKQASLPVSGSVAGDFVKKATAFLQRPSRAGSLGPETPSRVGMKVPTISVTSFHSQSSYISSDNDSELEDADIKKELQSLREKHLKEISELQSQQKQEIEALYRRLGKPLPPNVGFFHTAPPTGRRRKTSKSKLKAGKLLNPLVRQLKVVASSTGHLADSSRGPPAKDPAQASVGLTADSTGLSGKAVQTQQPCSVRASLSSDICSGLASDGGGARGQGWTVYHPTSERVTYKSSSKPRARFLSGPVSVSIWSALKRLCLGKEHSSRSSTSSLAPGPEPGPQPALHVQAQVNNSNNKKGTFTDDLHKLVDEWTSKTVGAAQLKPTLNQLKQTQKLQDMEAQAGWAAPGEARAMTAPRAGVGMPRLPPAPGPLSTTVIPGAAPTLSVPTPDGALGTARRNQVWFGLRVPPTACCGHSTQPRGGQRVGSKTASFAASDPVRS
Chain of alpha 1B (h) (P35368 whole entry): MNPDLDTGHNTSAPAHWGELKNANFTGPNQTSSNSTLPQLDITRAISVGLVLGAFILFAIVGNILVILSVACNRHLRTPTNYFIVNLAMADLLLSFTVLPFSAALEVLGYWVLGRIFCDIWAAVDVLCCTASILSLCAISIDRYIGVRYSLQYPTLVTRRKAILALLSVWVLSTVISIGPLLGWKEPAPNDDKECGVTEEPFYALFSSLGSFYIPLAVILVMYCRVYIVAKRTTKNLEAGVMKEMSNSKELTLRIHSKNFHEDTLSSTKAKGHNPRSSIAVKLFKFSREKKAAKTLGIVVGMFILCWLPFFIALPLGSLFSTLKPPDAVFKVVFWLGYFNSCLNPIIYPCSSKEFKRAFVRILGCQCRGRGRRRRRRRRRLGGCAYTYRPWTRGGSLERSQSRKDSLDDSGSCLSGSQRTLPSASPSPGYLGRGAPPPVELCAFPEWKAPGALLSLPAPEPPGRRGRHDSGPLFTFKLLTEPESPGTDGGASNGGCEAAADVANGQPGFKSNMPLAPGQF
T1 sequence (Q99705 whole entry): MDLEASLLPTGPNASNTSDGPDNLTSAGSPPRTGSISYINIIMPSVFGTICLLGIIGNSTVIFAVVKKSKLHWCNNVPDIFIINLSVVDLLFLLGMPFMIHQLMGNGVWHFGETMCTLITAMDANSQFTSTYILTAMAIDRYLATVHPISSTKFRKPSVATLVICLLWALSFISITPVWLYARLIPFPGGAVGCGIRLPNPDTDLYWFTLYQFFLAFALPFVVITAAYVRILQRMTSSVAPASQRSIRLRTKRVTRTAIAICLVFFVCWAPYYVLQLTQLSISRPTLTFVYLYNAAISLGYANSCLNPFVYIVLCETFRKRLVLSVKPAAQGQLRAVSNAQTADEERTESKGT
Chain of sst1 (h) (P30872 whole entry): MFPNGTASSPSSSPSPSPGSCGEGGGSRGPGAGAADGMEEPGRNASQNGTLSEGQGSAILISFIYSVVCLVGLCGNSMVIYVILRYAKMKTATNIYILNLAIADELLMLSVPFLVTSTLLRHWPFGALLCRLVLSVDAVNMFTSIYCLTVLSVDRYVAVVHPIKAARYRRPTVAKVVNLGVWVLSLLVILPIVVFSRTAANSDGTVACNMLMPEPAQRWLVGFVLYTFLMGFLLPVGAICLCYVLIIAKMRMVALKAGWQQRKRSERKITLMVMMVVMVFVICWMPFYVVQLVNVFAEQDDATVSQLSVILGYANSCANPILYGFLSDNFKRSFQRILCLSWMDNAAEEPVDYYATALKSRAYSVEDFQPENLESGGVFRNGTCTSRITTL
Chain of GSK3BETA (P49841 whole entry): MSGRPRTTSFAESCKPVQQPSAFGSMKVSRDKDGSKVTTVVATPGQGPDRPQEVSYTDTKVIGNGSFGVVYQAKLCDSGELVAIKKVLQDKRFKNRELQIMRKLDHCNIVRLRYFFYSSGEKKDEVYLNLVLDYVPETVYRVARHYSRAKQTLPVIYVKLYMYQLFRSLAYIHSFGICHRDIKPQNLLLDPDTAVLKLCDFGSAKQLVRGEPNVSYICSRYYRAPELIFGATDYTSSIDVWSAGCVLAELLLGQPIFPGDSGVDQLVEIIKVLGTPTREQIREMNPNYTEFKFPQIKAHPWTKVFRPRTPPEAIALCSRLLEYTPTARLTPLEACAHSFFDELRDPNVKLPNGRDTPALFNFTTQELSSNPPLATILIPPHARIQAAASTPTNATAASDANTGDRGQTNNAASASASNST
T14 sequence (Q9H2K8 whole entry): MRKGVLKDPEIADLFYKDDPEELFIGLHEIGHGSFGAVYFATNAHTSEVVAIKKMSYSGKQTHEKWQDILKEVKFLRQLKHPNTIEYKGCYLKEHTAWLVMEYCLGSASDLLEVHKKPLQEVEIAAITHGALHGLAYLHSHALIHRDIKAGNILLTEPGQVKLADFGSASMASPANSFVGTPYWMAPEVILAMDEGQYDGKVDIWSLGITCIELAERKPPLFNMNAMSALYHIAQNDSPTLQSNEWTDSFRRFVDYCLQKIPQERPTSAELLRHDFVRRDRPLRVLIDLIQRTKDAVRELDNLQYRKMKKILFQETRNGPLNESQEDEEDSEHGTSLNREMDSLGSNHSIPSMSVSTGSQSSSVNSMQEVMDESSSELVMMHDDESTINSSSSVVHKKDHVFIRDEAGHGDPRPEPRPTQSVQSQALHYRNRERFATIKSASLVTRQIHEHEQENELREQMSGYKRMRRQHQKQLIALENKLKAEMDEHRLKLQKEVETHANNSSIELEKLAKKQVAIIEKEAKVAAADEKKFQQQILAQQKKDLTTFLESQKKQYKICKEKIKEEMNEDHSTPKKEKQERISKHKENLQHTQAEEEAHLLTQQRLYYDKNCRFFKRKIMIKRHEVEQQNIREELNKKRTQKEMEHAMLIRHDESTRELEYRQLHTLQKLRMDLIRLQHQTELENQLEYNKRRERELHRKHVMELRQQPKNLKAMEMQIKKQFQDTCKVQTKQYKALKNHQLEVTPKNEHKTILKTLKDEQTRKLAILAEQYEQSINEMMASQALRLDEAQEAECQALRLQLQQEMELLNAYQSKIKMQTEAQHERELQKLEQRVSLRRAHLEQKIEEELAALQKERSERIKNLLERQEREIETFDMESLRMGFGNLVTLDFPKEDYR

SMILES: Cn1ncc2cc(-c3cnc(N)c(Cl)c3N3CCC4(CCNC4=O)CC3)ccc21 [Compound 109, 8-(2-Amino-3-chloro-5-(1-methyl-1H-indazol-5-yl)pyridin-4-yl)-2,8-diazaspiro[4.5]decan-1-one]
- inhibition at 10 µM [1]: 34%
- inhibition at 10 µM [2]: 12%
- inhibition at 10 µM [3]: -4%
- Vd [4]: 1.4 L/kg
- clearance [4]: 6 mL/min/kg
- % effect [5]: -26%
- % effect [6]: -4%
- % effect [7]: -3%
- % effect [8]: 5%
- % effect [9]: -6%
- % effect [10]: 13%
- % effect [11]: 17%
- % effect [12]: -13%
- % effect [13]: -15%
- % effect [14]: -10%
- % effect [15]: -3%
- % effect [16]: -11%
- % effect [17]: 18%
- % effect [18]: 3%
- % effect [19]: 8%
- % effect [20]: -17%
- % effect [21]: -8%
- % effect [22]: -10%
- % effect [23]: 4%
- % effect [24]: 6%
- % effect [25]: 7%
- % effect [26]: -11%
- % effect [27]: 27%
- % effect [28]: -1%
- % effect [29]: 11%
- % effect [30]: 6%
- % effect [31]: 5%
- % effect [32]: -4%
- % effect [33]: 9%
- % effect [34]: 7%
- % effect [35]: 6%
- % effect [36]: -5%
- % effect [37]: -2%
- % effect [38]: 1%
- % effect [39]: -3%
- Papp A→B at 2 h, 1 μM [40]: 31.8 ×10⁻⁶ cm/s
- inhibition at 10 µM [41]: 15%
- inhibition at 10 µM [42]: 6%
